Values of other authors in paper PMC6854850 (MicrobiologyOpen, 2019).

Target: T1, OmpP (Escherichia coli, UniProt P34210)
T1 sequence (P34210 24-315): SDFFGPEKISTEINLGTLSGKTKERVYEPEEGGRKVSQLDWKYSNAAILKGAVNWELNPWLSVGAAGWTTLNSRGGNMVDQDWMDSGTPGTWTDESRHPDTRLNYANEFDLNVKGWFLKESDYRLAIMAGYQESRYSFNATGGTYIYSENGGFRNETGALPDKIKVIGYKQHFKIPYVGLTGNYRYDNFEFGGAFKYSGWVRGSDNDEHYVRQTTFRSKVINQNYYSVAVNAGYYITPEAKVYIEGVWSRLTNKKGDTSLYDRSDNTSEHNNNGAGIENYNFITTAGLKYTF
Details: ref Hwang et al., 2007

Q: For protamine, which “cleavage of AMP by OmpP, in words” value is on record?
A: Its value is “has been shown to cleave”.
